Reference: PubChem BioAssay (NCI)
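Growth conditions: 96-well plates. Treatment: test compound, 48 hours, 5 concentrations. Analysis: linear interpolation between bracketing concentrations; unreached endpoints set to highest concentration. GI50 marks 50% less growth. At the TGI there is no net growth.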

Legend:
Assay in all cases: NCI tumour cell line growth inhibition, 48 h
SF-268 CNS = system: SF-268 CNS
OVCAR-8 ovarian = system: OVCAR-8 ovarian
UACC-62 melanoma = system: UACC-62 melanoma
OVCAR-5 ovarian = system: OVCAR-5 ovarian
EKVX NSCLC = system: EKVX NSCLC
HCC-2998 colon = system: HCC-2998 colon
SW-620 colon = system: SW-620 colon
T-47D breast = system: T-47D breast
SNB-19 CNS = system: SNB-19 CNS
RXF 393 renal = system: RXF 393 renal
HT29 colon = system: HT29 colon
HL-60(TB) leukemia = system: HL-60(TB) leukemia
K-562 leukemia = system: K-562 leukemia
OVCAR-3 ovarian = system: OVCAR-3 ovarian
UACC-257 melanoma = system: UACC-257 melanoma
SK-MEL-2 melanoma = system: SK-MEL-2 melanoma
SF-295 CNS = system: SF-295 CNS
HCT-116 colon = system: HCT-116 colon
KM12 colon = system: KM12 colon
CAKI-1 renal = system: CAKI-1 renal
BT-549 breast = system: BT-549 breast
HOP-92 NSCLC = system: HOP-92 NSCLC
NCI-H226 lung = system: NCI-H226 lung
IGROV1 ovarian = system: IGROV1 ovarian
NCI-H522 lung = system: NCI-H522 lung
NCI/ADR-RES ovarian = system: NCI/ADR-RES ovarian
RPMI-8226 leukemia = system: RPMI-8226 leukemia
PC-3 prostate = system: PC-3 prostate
SF-539 CNS = system: SF-539 CNS
DU-145 prostate = system: DU-145 prostate
CCRF-CEM leukemia = system: CCRF-CEM leukemia
A498 renal = system: A498 renal
SK-MEL-5 melanoma = system: SK-MEL-5 melanoma
TK-10 renal = system: TK-10 renal
ACHN renal = system: ACHN renal
SN12C renal = system: SN12C renal
786-0 renal = system: 786-0 renal
MDA-MB-231 breast = system: MDA-MB-231 breast
U251 CNS = system: U251 CNS
LOX IMVI melanoma = system: LOX IMVI melanoma
HOP-62 NSCLC = system: HOP-62 NSCLC
SNB-75 CNS = system: SNB-75 CNS
COLO 205 colon = system: COLO 205 colon
HS 578T breast = system: HS 578T breast
HCT-15 colon = system: HCT-15 colon
SR leukemia = system: SR leukemia
M14 melanoma = system: M14 melanoma
UO-31 renal = system: UO-31 renal
MCF7 breast = system: MCF7 breast
SK-OV-3 ovarian = system: SK-OV-3 ovarian
MOLT-4 leukemia = system: MOLT-4 leukemia
NCI-H460 lung = system: NCI-H460 lung
OVCAR-4 ovarian = system: OVCAR-4 ovarian
SK-MEL-28 melanoma = system: SK-MEL-28 melanoma
MALME-3M melanoma = system: MALME-3M melanoma
MDA-MB-435 = system: MDA-MB-435

Structure (SMILES): c1ccc2c(NCCCn3ccnc3)c3oc4ccccc4c3nc2c1
- GI50 (SF-268 CNS): 2.2 µM
- TGI (SF-268 CNS): 12.1 µM
- GI50 (OVCAR-8 ovarian): 1.58 µM
- TGI (OVCAR-8 ovarian): 4.55 µM
- GI50 (UACC-62 melanoma): 2.01 µM
- TGI (UACC-62 melanoma): 4.62 µM
- GI50 (OVCAR-5 ovarian): 1.99 µM
- TGI (OVCAR-5 ovarian): 6.54 µM
- GI50 (EKVX NSCLC): 2.8 µM
- TGI (EKVX NSCLC): 11 µM
- GI50 (HCC-2998 colon): 1.36 µM
- TGI (HCC-2998 colon): 2.99 µM
- GI50 (SW-620 colon): 0.792 µM
- TGI (SW-620 colon): 10.9 µM
- GI50 (T-47D breast): 2.31 µM
- TGI (T-47D breast): 8.53 µM
- GI50 (SNB-19 CNS): 2.6 µM
- TGI (SNB-19 CNS): 14.2 µM
- GI50 (RXF 393 renal): 1.41 µM
- TGI (RXF 393 renal): 3.23 µM
- GI50 (HT29 colon): 1.05 µM
- TGI (HT29 colon): 3.08 µM
- GI50 (HL-60(TB) leukemia): 2.5 µM
- TGI (HL-60(TB) leukemia): 7.72 µM
- GI50 (K-562 leukemia): 1.81 µM
- TGI (K-562 leukemia): > 100 µM
- GI50 (OVCAR-3 ovarian): 3.38 µM
- TGI (OVCAR-3 ovarian): > 100 µM
- GI50 (UACC-257 melanoma): 2.35 µM
- TGI (UACC-257 melanoma): 6 µM
- GI50 (SK-MEL-2 melanoma): 1.85 µM
- TGI (SK-MEL-2 melanoma): 3.6 µM
- GI50 (SF-295 CNS): 2.53 µM
- TGI (SF-295 CNS): 10.5 µM
- GI50 (HCT-116 colon): 0.518 µM
- TGI (HCT-116 colon): 10.3 µM
- GI50 (KM12 colon): 2.51 µM
- TGI (KM12 colon): > 100 µM
- GI50 (CAKI-1 renal): 1.7 µM
- TGI (CAKI-1 renal): 6.56 µM
- GI50 (BT-549 breast): 1.98 µM
- TGI (BT-549 breast): 4.75 µM
- GI50 (HOP-92 NSCLC): 1.11 µM
- TGI (HOP-92 NSCLC): 3.68 µM
- GI50 (NCI-H226 lung): 1.94 µM
- TGI (NCI-H226 lung): 4.7 µM
- GI50 (IGROV1 ovarian): 2.82 µM
- TGI (IGROV1 ovarian): 10.8 µM
- GI50 (NCI-H522 lung): 1.58 µM
- TGI (NCI-H522 lung): 3.63 µM
- GI50 (NCI/ADR-RES ovarian): 1.87 µM
- TGI (NCI/ADR-RES ovarian): 6.18 µM
- GI50 (RPMI-8226 leukemia): 2.04 µM
- TGI (RPMI-8226 leukemia): 5.62 µM
- GI50 (PC-3 prostate): 2.08 µM
- TGI (PC-3 prostate): 6.85 µM
- GI50 (SF-539 CNS): 1.71 µM
- TGI (SF-539 CNS): 3.94 µM
- GI50 (DU-145 prostate): 2.63 µM
- TGI (DU-145 prostate): 15.5 µM
- GI50 (CCRF-CEM leukemia): 2.35 µM
- TGI (CCRF-CEM leukemia): 18 µM
- GI50 (A498 renal): 2.89 µM
- TGI (A498 renal): 9.13 µM
- GI50 (SK-MEL-5 melanoma): 2.27 µM
- TGI (SK-MEL-5 melanoma): 5.14 µM
- GI50 (TK-10 renal): 3.29 µM
- TGI (TK-10 renal): 8.62 µM
- GI50 (ACHN renal): 0.942 µM
- TGI (ACHN renal): 10.5 µM
- GI50 (SN12C renal): 1.7 µM
- TGI (SN12C renal): 11 µM
- GI50 (786-0 renal): 2.57 µM
- TGI (786-0 renal): 13.2 µM
- GI50 (MDA-MB-231 breast): 2.04 µM
- TGI (MDA-MB-231 breast): 7.73 µM
- GI50 (U251 CNS): 2.33 µM
- TGI (U251 CNS): 10.3 µM
- GI50 (LOX IMVI melanoma): 1.35 µM
- TGI (LOX IMVI melanoma): 3.3 µM
- GI50 (HOP-62 NSCLC): 1.59 µM
- TGI (HOP-62 NSCLC): 4.3 µM
- GI50 (SNB-75 CNS): 1.85 µM
- TGI (SNB-75 CNS): 4.93 µM
- GI50 (COLO 205 colon): 1.42 µM
- TGI (COLO 205 colon): 3.04 µM
- GI50 (HS 578T breast): 2.79 µM
- TGI (HS 578T breast): 14 µM
- GI50 (HCT-15 colon): 1.79 µM
- TGI (HCT-15 colon): 10.6 µM
- GI50 (SR leukemia): 1.73 µM
- TGI (SR leukemia): > 100 µM
- GI50 (M14 melanoma): 1.89 µM
- TGI (M14 melanoma): 3.56 µM
- GI50 (UO-31 renal): 1.42 µM
- TGI (UO-31 renal): 3.28 µM
- GI50 (MCF7 breast): 1.78 µM
- TGI (MCF7 breast): 7.62 µM
- GI50 (SK-OV-3 ovarian): 2.3 µM
- TGI (SK-OV-3 ovarian): 6.85 µM
- GI50 (MOLT-4 leukemia): 0.524 µM
- TGI (MOLT-4 leukemia): 71.8 µM
- GI50 (NCI-H460 lung): 1.27 µM
- TGI (NCI-H460 lung): 8.27 µM
- GI50 (OVCAR-4 ovarian): 2.12 µM
- TGI (OVCAR-4 ovarian): 7.47 µM
- GI50 (SK-MEL-28 melanoma): 2.15 µM
- TGI (SK-MEL-28 melanoma): 4.32 µM
- GI50 (MALME-3M melanoma): 2.66 µM
- TGI (MALME-3M melanoma): 6.23 µM
- GI50 (MDA-MB-435): 2.13 µM
- TGI (MDA-MB-435): 5.2 µM
